Experimental findings from publication PMC6399515 (Insect Biochemistry and Molecular Biology, 2016) are described below.

Data set [1] concerns the target CYP6M2 (Anopheles gambiae, UniProt Q7Q449). Kind of data set: biochemical.
In data set [2] the test system is CYP6P5.
For data set [3], the target named is T1, CYP6Z2 (Anopheles gambiae, UniProt A8I285).
T1 sequence (A8I285 1-492): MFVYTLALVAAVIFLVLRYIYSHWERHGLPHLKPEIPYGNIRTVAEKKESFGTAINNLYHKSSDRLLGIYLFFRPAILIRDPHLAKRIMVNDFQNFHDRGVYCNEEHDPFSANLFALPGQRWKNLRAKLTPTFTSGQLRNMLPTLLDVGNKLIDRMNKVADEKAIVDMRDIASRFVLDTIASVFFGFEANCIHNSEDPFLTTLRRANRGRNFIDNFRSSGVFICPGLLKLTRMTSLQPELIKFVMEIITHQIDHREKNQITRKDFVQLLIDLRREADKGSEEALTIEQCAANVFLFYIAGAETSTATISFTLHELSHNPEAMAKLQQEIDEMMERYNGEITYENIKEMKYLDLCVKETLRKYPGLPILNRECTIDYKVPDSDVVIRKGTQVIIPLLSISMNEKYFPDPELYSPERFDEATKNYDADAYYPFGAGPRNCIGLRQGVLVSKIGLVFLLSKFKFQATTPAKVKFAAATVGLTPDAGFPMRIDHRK
T1 sequence (Q86QH5 1-679 partner): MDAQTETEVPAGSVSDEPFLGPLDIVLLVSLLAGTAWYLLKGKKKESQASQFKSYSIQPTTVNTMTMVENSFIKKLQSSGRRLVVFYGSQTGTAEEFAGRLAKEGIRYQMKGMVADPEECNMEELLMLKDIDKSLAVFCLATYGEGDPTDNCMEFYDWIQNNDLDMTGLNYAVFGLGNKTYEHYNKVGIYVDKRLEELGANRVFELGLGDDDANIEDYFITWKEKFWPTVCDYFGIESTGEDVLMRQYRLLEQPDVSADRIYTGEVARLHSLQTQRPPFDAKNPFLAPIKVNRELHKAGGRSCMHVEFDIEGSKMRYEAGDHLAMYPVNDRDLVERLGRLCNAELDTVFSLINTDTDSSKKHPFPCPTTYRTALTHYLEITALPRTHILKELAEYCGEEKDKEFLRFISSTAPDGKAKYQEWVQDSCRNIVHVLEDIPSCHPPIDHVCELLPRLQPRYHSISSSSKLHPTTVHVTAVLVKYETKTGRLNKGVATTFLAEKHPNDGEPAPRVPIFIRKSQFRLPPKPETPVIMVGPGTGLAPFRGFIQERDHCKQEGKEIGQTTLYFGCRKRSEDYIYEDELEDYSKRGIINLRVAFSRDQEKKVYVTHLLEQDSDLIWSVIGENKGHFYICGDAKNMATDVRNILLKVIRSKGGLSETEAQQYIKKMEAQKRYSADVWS
T1 sequence (Q86QH4 1-128 partner): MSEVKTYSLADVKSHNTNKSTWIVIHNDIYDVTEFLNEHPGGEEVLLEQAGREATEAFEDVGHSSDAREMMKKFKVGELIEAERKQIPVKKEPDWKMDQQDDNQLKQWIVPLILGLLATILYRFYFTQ

In data set [4] the target is T2, CYP6P2 (Anopheles gambiae, UniProt Q8T629, V81I).
T2 sequence (Q8T629 1-507 V81I): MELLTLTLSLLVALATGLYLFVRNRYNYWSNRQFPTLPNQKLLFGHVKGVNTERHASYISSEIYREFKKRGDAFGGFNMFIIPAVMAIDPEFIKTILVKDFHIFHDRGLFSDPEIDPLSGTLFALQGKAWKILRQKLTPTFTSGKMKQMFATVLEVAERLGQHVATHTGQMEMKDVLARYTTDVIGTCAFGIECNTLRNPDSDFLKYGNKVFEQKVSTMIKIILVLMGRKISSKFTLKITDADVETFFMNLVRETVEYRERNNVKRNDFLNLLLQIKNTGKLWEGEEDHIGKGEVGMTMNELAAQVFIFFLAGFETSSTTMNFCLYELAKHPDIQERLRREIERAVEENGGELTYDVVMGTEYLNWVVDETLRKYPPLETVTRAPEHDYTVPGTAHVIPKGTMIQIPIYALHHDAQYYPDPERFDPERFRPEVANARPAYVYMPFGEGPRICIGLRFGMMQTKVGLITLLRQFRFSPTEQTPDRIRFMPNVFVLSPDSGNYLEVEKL
T2 sequence (Q7QFI3 1-587 partner): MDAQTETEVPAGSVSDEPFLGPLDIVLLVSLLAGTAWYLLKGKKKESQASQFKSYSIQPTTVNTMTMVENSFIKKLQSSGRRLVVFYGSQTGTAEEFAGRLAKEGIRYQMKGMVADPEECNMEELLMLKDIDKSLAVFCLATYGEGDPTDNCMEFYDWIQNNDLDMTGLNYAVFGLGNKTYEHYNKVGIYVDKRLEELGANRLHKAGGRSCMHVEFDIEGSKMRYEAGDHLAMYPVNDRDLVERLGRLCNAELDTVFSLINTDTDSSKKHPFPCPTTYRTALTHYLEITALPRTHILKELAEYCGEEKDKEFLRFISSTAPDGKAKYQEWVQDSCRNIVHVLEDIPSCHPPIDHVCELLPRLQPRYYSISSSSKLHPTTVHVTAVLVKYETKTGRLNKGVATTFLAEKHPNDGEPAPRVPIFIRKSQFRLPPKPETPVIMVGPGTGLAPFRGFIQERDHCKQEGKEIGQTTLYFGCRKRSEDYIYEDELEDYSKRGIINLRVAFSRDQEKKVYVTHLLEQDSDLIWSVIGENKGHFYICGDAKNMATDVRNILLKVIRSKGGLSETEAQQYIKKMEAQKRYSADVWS
T2 sequence (Q86QH4 1-128 partner): T1 sequence (Q86QH4 1-128 partner)

The target in data set [5] is T3, CYP9J5 (Anopheles gambiae, UniProt Q5TN57).
T3 sequence (Q5TN57 1-545): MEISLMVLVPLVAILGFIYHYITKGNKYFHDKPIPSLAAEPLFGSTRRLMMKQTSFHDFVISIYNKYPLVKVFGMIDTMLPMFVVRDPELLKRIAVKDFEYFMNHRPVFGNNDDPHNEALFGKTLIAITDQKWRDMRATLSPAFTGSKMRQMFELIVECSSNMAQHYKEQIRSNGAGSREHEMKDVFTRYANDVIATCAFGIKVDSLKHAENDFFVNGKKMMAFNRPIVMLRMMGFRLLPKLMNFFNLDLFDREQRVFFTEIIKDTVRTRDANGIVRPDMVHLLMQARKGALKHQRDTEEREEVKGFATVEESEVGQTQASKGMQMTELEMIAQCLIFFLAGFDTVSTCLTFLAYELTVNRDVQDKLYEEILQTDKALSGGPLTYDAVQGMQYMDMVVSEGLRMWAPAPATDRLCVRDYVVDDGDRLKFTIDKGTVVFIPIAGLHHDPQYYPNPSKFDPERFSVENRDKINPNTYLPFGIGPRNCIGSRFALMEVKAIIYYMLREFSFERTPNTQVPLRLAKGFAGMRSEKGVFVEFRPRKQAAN
T3 sequence (Q86QH5 1-679 partner): T1 sequence (Q86QH5 1-679 partner)
T3 sequence (Q86QH4 1-128 partner): T1 sequence (Q86QH4 1-128 partner)

Sequence of CYP6M2 (Q7Q449 1-499, one chain of several): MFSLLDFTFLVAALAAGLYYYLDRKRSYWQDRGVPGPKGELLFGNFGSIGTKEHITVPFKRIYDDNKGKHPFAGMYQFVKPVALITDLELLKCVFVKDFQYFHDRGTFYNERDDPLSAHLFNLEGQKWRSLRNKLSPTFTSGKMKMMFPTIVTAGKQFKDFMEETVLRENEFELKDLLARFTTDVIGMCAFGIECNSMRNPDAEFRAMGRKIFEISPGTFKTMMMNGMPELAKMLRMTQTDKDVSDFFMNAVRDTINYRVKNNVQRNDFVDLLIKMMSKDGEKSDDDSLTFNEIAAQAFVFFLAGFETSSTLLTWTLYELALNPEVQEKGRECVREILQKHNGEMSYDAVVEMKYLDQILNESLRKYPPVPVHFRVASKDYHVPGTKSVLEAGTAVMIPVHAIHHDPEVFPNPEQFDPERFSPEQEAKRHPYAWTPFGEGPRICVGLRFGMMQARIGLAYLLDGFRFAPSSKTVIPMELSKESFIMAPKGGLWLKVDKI

Take `CC1(C)C(C=C(Cl)Cl)C1C(=O)OCc1cccc(Oc2ccccc2)c1` (mixture of isomers) [Permethrin, 3-phenoxybenzyl (1R,S)-cis,trans-3-(2,2-dichlorovinyl)-2,2-dimethylcyclopropanecarboxylate]: the IC50 in data set [1] amounted to 8.07 µM.
As to `CCCCOCCOCCOCc1cc2c(cc1CCC)OCO2` [PBO, piperonyl butoxide], the “Inhibition ratio (%): reduction of PPF depletion caused by PBO” value in data set [2] turned out to be 95.4%; in data set [3], 87.3%; in data set [4], 91.0%; in data set [5] it was 99.6%.
For `CC(COc1ccc(Oc2ccccc2)cc1)Oc1ccccn1` (stereo not shown) [PPF, pyriproxyfen], in data set [1], the IC50 was found to be 14.1 µM. The “% PPF depletion + PBO” value was 2.40 ± 2.01% in data set [2] (Anopheles gambiae, pH 7.4); 8.41 ± 1.58% in data set [3] (Anopheles gambiae, pH 7.4); 6.45 ± 3.22% in data set [4] (Anopheles gambiae, pH 7.4); 0.08 ± 0.15% in data set [5] (Anopheles gambiae, pH 7.4). Also, the “% PPF depletion −PBO” value in data set [2] (Anopheles gambiae, pH 7.4) is listed as 39.96 ± 1.04%; in data set [3] (Anopheles gambiae, pH 7.4) it was 66.26 ± 3.02%; in data set [4] (Anopheles gambiae, pH 7.4), 58.03 ± 1.35%.

Usually IC50 stands for the midpoint of a concentration-inhibition curve. A high value points to weaker potency in that assay.
